Each block holds one molecule with its values, some of them ahead of it.
Assays:
[1] = Gas-induced (pressurized CO2) phase transformation of crystal forms, followed by XRPD; format: physicochemical
Excerpt: The invention teaches that simple pressurization of polymorphic forms of an organic solid, such as a pharmaceutical agent, can effect phase transitions among the forms with ease. More specifically, the inventive method comprises the step of subjecting an organic solid to a pressurized gas under low to moderate pressure at room temperature to a mildly elevated temperature for a period of time. The pressurized gas may be CO2, N2O, and CH4, and the pressure may start at 1 atm, whereas under slightly elevated pressure, the reaction temperature may be lowered, while the reaction time may be shortened.
Refer to FIG. 3, which includes schematic illustrations of the phase transformations between different forms of Clarithromycin 1. […] As expected, desolvated form I can be transformed to form II with greater ease under analogous conditions. […] Different gases including H2, He, CH4, N2, O2, air, and N2O have been studied, among which N2O has similar transformation effect as CO2.
Refer to FIG. 5, which compares the transformations under different gas pressures (350 psi vs. 100 psi) at different durations.
The invention has also studied Lansoprazole 2 transformations under CO2 but at higher pressure conditions.

[2] = 1:1 ethanol hydrate; cited from earlier work
[3] = cited from earlier work

time of exposure for complete transformation directly to form II ([1]; 23.8 atm (350 psi) CO2, room temperature): 4 h
SMILES: CC[C@H]1OC(=O)[C@H](C)[C@@H](O[C@H]2C[C@@](C)(OC)[C@@H](O)[C@H](C)O2)[C@H](C)[C@@H](O[C@@H]2O[C@H](C)C[C@H](N(C)C)[C@H]2O)[C@](C)(OC)C[C@@H](C)C(=O)[C@H](C)[C@@H](O)[C@]1(C)O [Clarithromycin form 0, 6-O-methylerythro-mycin A]

time for transformation to form II ([1]; pressurization under 350 psi CO2): within just several minutes
SMILES: CC[C@H]1OC(=O)[C@H](C)[C@@H](O[C@H]2C[C@@](C)(OC)[C@@H](O)[C@H](C)O2)[C@H](C)[C@@H](O[C@@H]2O[C@H](C)C[C@H](N(C)C)[C@H]2O)[C@](C)(OC)C[C@@H](C)C(=O)[C@H](C)[C@@H](O)[C@]1(C)O [Clarithromycin form I, 6-O-methylerythro-mycin A]

SMILES: Cc1c(OCC(F)(F)F)ccnc1C[S+]([O-])c1nc2ccccc2[nH]1 (stereo not drawn) [Lansoprazole ethanol hydrate, Lansoprazole]
transformation of ethanol hydrate to solvent-free form ([1]; 500 psi CO2, room temperature): transformation to the more thermodynamically stable solvent-free form begins
chemical stability of the solvate [2]: prone to decomposition

SMILES: CO[C@@H]1[C@@H](OC(N)=O)[C@@H](O)[C@H](Oc2ccc3c(O)c(NC(=O)c4ccc(O)c(CC=C(C)C)c4)c(=O)oc3c2C)OC1(C)C [novobiocin amorphous phase, novobiocin]
absorption upon oral administration [3]: readily absorbed

SMILES: CO[C@@H]1[C@@H](OC(N)=O)[C@@H](O)[C@H](Oc2ccc3c(O)c(NC(=O)c4ccc(O)c(CC=C(C)C)c4)c(=O)oc3c2C)OC1(C)C [novobiocin crystalline form, novobiocin]
absorption upon oral administration [3]: poorly absorbed

Reference: patent US9119769B2, “Method for transforming pharmaceutical crystal forms” (The Curators of the University of Missouri, priority 2012, dated 2015)
